Assay results published in ChEMBL document CHEMBL1157899, “Molecular modelling, synthesis and acetylcholinesterase inhibition of ethyl 5-amino-2-methyl-6,7,8,9-tetrahydrobenzo[b][1,8]naphthyridine-3-carboxylate” (Bioorg Med Chem Lett, 2010).

Assays:
Cholinesterase = Cholinesterase (Equus caballus, UniProt P81908); assay: Inhibition of Equus caballus BuChE
Acetylcholinesterase [1] = target: Acetylcholinesterase (Homo sapiens, UniProt P22303); assay: Inhibition of human AChE
Acetylcholinesterase [2] = target: Acetylcholinesterase (Electrophorus electricus, UniProt O42275); assay: Inhibition of electric eel AChE
Acetylcholinesterase (Electrophorus electricus, UniProt O42275), sequence (O42275 whole entry): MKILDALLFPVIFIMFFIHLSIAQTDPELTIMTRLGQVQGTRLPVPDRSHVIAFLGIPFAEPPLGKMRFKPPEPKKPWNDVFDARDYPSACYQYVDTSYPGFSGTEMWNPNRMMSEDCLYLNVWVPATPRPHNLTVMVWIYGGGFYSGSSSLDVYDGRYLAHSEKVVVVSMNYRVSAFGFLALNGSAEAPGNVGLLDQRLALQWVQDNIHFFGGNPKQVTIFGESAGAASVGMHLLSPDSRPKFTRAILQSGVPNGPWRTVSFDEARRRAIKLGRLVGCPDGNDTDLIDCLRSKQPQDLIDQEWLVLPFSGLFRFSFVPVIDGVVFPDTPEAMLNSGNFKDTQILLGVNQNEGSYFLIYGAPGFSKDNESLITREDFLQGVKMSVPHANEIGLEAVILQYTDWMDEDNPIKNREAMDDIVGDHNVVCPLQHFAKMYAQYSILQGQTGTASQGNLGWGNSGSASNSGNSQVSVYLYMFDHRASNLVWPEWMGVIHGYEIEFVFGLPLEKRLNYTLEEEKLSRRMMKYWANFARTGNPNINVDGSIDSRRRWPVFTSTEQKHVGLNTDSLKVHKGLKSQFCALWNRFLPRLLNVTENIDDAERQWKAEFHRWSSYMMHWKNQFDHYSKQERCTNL

Cholinesterase, sequence (P81908 whole entry): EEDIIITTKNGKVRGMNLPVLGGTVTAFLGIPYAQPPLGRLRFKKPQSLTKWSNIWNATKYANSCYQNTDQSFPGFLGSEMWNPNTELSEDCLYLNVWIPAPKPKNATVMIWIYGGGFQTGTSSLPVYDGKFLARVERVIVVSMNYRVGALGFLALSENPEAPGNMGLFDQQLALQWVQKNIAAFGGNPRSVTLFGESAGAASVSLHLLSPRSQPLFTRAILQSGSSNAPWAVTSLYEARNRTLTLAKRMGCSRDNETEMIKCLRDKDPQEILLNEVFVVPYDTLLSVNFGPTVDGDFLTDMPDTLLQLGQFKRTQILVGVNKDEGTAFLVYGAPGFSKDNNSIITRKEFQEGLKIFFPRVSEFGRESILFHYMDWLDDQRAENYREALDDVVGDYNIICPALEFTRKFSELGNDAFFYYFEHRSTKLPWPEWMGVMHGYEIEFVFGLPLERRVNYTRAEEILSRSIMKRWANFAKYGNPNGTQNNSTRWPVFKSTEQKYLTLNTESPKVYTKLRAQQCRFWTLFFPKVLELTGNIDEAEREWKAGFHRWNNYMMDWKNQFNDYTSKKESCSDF
Acetylcholinesterase (Homo sapiens, UniProt P22303), sequence (P22303 whole entry): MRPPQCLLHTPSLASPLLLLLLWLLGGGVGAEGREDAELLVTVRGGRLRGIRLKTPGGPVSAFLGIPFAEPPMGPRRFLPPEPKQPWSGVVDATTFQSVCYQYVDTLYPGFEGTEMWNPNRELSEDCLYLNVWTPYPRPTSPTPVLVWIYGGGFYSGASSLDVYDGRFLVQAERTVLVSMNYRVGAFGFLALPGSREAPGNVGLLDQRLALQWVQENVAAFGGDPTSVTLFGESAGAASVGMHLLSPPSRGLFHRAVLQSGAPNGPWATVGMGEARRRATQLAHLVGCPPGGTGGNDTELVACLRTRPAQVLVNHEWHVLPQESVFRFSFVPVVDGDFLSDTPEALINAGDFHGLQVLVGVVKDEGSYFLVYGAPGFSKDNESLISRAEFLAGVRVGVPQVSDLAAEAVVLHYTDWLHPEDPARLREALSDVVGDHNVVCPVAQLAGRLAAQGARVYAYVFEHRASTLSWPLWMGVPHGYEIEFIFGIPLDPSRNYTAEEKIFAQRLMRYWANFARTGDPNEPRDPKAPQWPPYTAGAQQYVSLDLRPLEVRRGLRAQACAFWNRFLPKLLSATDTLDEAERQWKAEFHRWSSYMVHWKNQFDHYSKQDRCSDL

Q: With `CCOC(=O)c1cc2c(N)c3c(nc2nc1C)CCCC3` as the compound, how does the IC50 (Cholinesterase; read-out: IC50) read?
A: The IC50 was 12 µM.

Q: What about the IC50 (Acetylcholinesterase [1]) of the same compound?
A: Its IC50 is 0.78 µM.

Q: What about the IC50 (Acetylcholinesterase [2]) of the same compound?
A: Its IC50 is 0.06 µM.

Q: Which IC50 (Cholinesterase) does the source give for `Cc1nc2nc3c(c(N)c2cc1C(=O)O)CCCC3` here?
A: The IC50 was “Not Active”.

Q: And the IC50 (Acetylcholinesterase [2])?
A: Its IC50 is 15 µM.

Q: For `Cc1nc2nc3c(c(N)c2cc1C(=O)[O-])CCCC3.[Na+]`, which IC50 (Cholinesterase) is on record?
A: Its IC50 is “Not Active”.

Q: What about the IC50 (Acetylcholinesterase [2]) of the same compound?
A: The IC50 was 5.3 µM.

Q: For `CCOC(=O)c1c(C)nc2nc3c(c(N)c2c1-c1ccccc1)CCCC3`, which IC50 (Cholinesterase; read-out: IC50) is on record?
A: The IC50 was 5.03 µM.
